These are literature values, as cited in patent US20260174730A1, “A COMPOSITION FOR TREATING PARKINSON'S DISEASE” (COUNCIL OF SCIENTIFIC & INDUSTRIAL RESEARCH, priority 2023, published 2026).

The subject of this data set is oxygen-glucose deprivation in vitro.

For the molecule `C/C(=C\COc1ccc2ccc(=O)oc2c1)CC[C@@H]1C(C)(C)[C@H]2CC[C@]1(C)O2` [farnesiferol C], the neuroprotective activity entry was “moderate neuroprotective activity”.
